What was measured:
[1] = tested on: Cisplatin-induced Acute Kidney Injury In Mice; assay: Effect of B4 by different administration routes on cisplatin-induced acute kidney injury in mice; assay type: in vivo, ICR mouse; conditions: for BUN / Crea / TP / Urine protein: 4 days; for Reduction of effective dose to reverse cisplatin-induced renal injury, injection compared with oral administration: iv 5 mg/kg versus gavage 100 mg/kg
Experimental: Pulsatilla saponin B4 was orally and intravenously administrated in parallel, the effect of Pulsatilla saponin B4 in different administration routes on acute nephritis in cisplatin (CDDP)-stimulated mouse serum was investigated.
The drugs were all prepared into a solution with a specified concentration under “Test Method” with double distilled water and administered in the prescribed manner.
2.2 Modeling method: models were made at a dose of […] of cisplatin, the mice in normal group were injected with physiological saline intraperitoneally and the mice in other groups were injected with cisplatin intraperitoneally.
2.3 Grouping and administration: Animals were randomly divided into seven groups, 10-12 animals in each group:
(3) Dexamethasone positive group (0.5 mg/kg·body weight), dexamethasone solution was administered by gavage at a dose of 20 ml/kg·body weight;
(4) B4 high-dose group administered intravenously (5 mg/kg·body weight), B4 solution was injected into the tail vein at a dose of 5 ml/kg·body weight;
(5) B4 low-dose group administered intravenously (2.5 mg/kg·body weight), B4 solution was injected into the tail vein at a dose of 5 ml/kg·body weight;
(6) B4 high-dose group administered by gavage (100 mg/kg·body weight), B4 solution was given by gavage at a dose of 20 ml/kg·body weight;
(7) B4 low-dose group administered by gavage (50 mg/kg·body weight), B4 solution was given by gavage at a dose of 20 m/kg·body weight;
Drugs were administered continuously for 4 days from the day of modeling.
Urine was collected 0.5 hours after the last administration and urine protein was measured; blood was collected from the eyeball 1 hour after the administration, and the whole blood of the mice was placed at room temperature for 2 hours, centrifuged at 3500 rpm/min for 15 minutes, 200 μl supernatant was measured by an automatic biochemical analyzer to determine the total protein (TP), urea nitrogen (BUN) and creatinine (Cre).

[2] = Water solubility of Pulsatilla saponin B4; assay type: physicochemical
[3] = Compatibility test of raw materials and excipients (high temperature and illumination); assay type: physicochemical
Experimental: The content of Pulsatilla saponin B4 in the following experimental examples and examples is determined according to the following method:
Chromatographic column: C18, 250 mm×4.6 mm, 5 μm
Mobile phase: acetonitrile-water (26:74) (volume ratio)
An appropriate amount of Pulsatilla saponin B4 control sample was taken, weighed precisely, placed into a 10 ml volumetric flask, added with methanol to dissolve and dilute to the mark, the solution was shaken well and filtered to obtain a solution with 1 mg Pulsatilla saponin B4 control sample/1 ml solution.
About 25 mg of test sample was taken, weighed precisely, placed into a 25 ml volumetric flask, added with the mobile phase to dissolve and dilute to the mark, the solution was shaken well and filtered through a 0.22 μm microporous membrane, the filtrate was taken to obtain the test sample.
10 μl of the test solution was taken and injected into a liquid chromatograph, the chromatogram was recorded. The calculation formula was as follows: […]
Pulsatilla saponin B4 raw material was mixed with various excipients (water for injection, physiological saline, mannitol, lactose, sucrose and glucose) in a ratio of 1:5 (mass), and then placed under the conditions of high temperature (60° C. and 40° C.) and illumination (4500Lux±500), the samples were taken on day 0, 7 and 14 to investigate the purity of Pulsatilla saponin B4 and related substances.

[4] = dexamethasone 0.5 mg/kg by gavage, serum 1 h after last administration
[5] = B4 iv (tail vein) 2.5 mg/kg, serum
[6] = B4 po (gavage) 100 mg/kg, serum
[7] = day 0, raw material:excipient 1:5 (mass)
[8] = day 7, illumination (4500Lux±500)
[9] = day 14, illumination (4500Lux±500)

Work on `C[C@@H]1C[C@H]2[C@@H]3CCC4=CC(=O)C=C[C@]4(C)[C@@]3(F)[C@@H](O)C[C@]2(C)[C@@]1(O)C(=O)CO` [Positive control, Dexamethasone, reference compound] yielded a BUN [1, 4] of 42.97 ± 27.45 mg/dL, a Crea [1, 4] of 30.10 ± 3.93 µmol/L and a TP [1, 4] of 52.90 ± 2.50 g/L. For the same molecule, the BUN ([1]; dexamethasone 0.5 mg/kg by gavage, serum 1 h after last administration, listed as positive control) was “decreased significantly”, the Urine protein ([1]; dexamethasone 0.5 mg/kg by gavage, urine 0.5 h after last administration) was 1.00 ± 0.27 mg/mL and the Urine protein ([1]; dexamethasone 0.5 mg/kg by gavage, urine 0.5 h after last administration, listed as positive control) was “decreased significantly”.
With `C=C(C)C1CC[C@]2(C(=O)O[C@@H]3O[C@H](CO[C@@H]4O[C@H](CO)[C@@H](O[C@@H]5O[C@@H](C)[C@H](O)[C@@H](O)[C@H]5O)[C@H](O)[C@H]4O)[C@@H](O)[C@H](O)[C@H]3O)CC[C@]3(C)[C@H](CC[C@@H]4[C@@]5(C)CC[C@H](OC6OC[C@H](O)[C@H](O)[C@H]6O[C@]6(O)O[C@@H](C)[C@H](O)[C@@H](O)[C@H]6O)[C@@](C)(CO)[C@@H]5CC[C@]43C)[C@@H]12` (stereo partly drawn) [Prescription B4, Pulsatilla saponin B4] the water solubility [2] was “good water solubility”, the BUN [1, 5] was 69.26 ± 45.76 mg/dL and the Crea [1, 5] was 29.27 ± 5.66 µmol/L. It also gave a TP [1, 5] of 47.58 ± 2.50 g/L, a Urine protein ([1]; B4 iv (tail vein) 2.5 mg/kg, urine) of 1.35 ± 0.39 mg/mL and a TP ([1]; B4 iv (tail vein) 5 mg/kg, serum) of 46.58 ± 2.25 g/L. It also gave a BUN ([1]; B4 po (gavage) 50 mg/kg, serum) of 50.1 ± 5.38 mg/dL, a Crea ([1]; B4 po (gavage) 50 mg/kg, serum) of 30.28 ± 4.77 µmol/L and a TP ([1]; B4 po (gavage) 50 mg/kg, serum) of 47.69 ± 3.17 g/L. It also gave a Urine protein ([1]; B4 po (gavage) 50 mg/kg, urine) of 1.37 ± 0.31 mg/mL, a Crea [1, 6] of 28.17 ± 3.01 µmol/L and a TP [1, 6] of 48.15 ± 3.68 g/L. For the same molecule, the Urine protein ([1]; B4 po (gavage) 100 mg/kg, urine) was 1.19 ± 0.25 mg/mL, the “Reduction of effective dose to reverse cisplatin-induced renal injury, injection compared with oral administration” value [1] was “at least 20 times” and the “Reduction of effective dose to reverse cisplatin-induced renal injury, injection compared with oral administration” value ([1]; listed as Pulsatilla saponin B4) was 20 times. The “Purity (%)” value [3, 7] was 99.10%, the “Related substances (%) Max single impurity” value [3, 7] was 0.40% and the “Related substances (%) Total impurities” value [3, 7] was 0.65%. For the same molecule, the “Content (%) 40° C.” value ([3]; day 7, 40° C.) was 98.96%, the “Related substances (%) 40° C. Max single impurity” value ([3]; day 7, 40° C.) was 0.40% and the “Related substances (%) 40° C. Total impurities” value ([3]; day 7, 40° C.) was 0.64%. For the same molecule, the “Content (%) 60° C.” value ([3]; day 7, 60° C.) was 98.93%, the “Related substances (%) 60° C. Max single impurity” value ([3]; day 7, 60° C.) was 0.41% and the “Related substances (%) 60° C. Total impurities” value ([3]; day 7, 60° C.) was 0.66%. For the same molecule, the “Content (%) illumination” value [3, 8] was 98.97%, the “Related substances (%) illumination Max single impurity” value [3, 8] was 0.40% and the “Related substances (%) illumination Total impurities” value [3, 8] was 0.64%. For the same molecule, the “Content (%) 40° C.” value ([3]; day 14, 40° C.) was 98.86%, the “Related substances (%) 40° C. Max single impurity” value ([3]; day 14, 40° C.) was 0.41% and the “Related substances (%) 40° C. Total impurities” value ([3]; day 14, 40° C.) was 0.63%. For the same molecule, the “Content (%) 60° C.” value ([3]; day 14, 60° C.) was 98.89%, the “Related substances (%) 60° C. Max single impurity” value ([3]; day 14, 60° C.) was 0.41% and the “Related substances (%) 60° C. Total impurities” value ([3]; day 14, 60° C.) was 0.64%. The “Content (%) illumination” value [3, 9] was 98.95%, the “Related substances (%) illumination Max single impurity” value [3, 9] was 0.42% and the “Related substances (%) illumination Total impurities” value [3, 9] was 0.64%.
